Assay results: ChEMBL document CHEMBL1201862, “PubChem BioAssay data set” (2004)
The source made the active and inactive calls.

Experiments:
[1] = target: Genome polyprotein (dengue virus type 2, UniProt P29990); experiment: Dengue-2 NS5 methyltransferase inhibitors, primary screen, biochemical, confirmation dose response (AID 588689); format: functional
[2] = target: Glucose-6-phosphate 1-dehydrogenase (Homo sapiens, UniProt P11413); experiment: human G6PD enzyme inhibitors, dose response, selectivity assay for P. falciparum G6PD inhibitor project, biochemical, fluorescence (AID 504792); format: functional
[3] = system: HeLa; experiment: HeLa cell cytotoxicity, dose response, cytotoxicity control, ATP luminescence, cherry-pick samples (AID 687004); format: functional, cell-based; conditions: Homo sapiens
[4] = cells; format: functional
[5] = THP-1 cell cytotoxicity, dose response, cytotoxicity control for non-replicating M. tuberculosis project (AID 489025); format: functional
[6] = cells; format: functional, cell-based
[7] = cells; format: functional, cell-based; remark: listed apart in the source
[8] = target: T1, High affinity choline transporter 1 (Homo sapiens, UniProt Q9GZV3); experiment: CHT inhibitors, dose response, cell-based, 5-point CRC, membrane potential dye (AID 504840); format: functional
T1 sequence (Q9GZV3 whole entry): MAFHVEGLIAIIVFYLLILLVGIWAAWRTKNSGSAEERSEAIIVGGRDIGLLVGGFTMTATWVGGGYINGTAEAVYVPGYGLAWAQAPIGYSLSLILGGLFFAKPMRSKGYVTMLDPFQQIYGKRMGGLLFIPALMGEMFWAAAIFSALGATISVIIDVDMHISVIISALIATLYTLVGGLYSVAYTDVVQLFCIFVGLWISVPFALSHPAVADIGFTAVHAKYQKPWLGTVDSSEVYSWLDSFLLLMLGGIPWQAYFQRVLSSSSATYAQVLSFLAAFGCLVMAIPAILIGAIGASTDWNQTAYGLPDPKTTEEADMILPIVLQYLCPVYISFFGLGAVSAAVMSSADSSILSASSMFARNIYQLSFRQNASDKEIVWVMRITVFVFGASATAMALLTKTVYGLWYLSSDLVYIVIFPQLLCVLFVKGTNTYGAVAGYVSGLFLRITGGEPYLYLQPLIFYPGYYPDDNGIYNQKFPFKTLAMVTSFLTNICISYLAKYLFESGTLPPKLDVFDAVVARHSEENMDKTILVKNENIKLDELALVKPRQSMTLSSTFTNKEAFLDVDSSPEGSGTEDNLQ

[9] = target: T2, Cytochrome P450 3A4 (Homo sapiens, UniProt P08684); conditions: Potency
[10] = nonselective inhibitors of cellular cAMP signaling, dose response, counter-screen for MC4R biased antagonist project, cell-based, TR-FRET cAMP detection (AID 602305); format: functional;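 also: U2OS cells stimulated with forskolin near its EC80 as the cAMP inducer; potency is for inhibition of forskolin-stimulated cAMP signaling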
[11] = target: Melanocortin receptor 4 (Homo sapiens, UniProt P32245); experiment: MC4R antagonist potency on cAMP, dose response, cell-based, TR-FRET, biased antagonists (AID 602298); format: functional;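 also: antagonist potency against agonist-stimulated cAMP production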
[12] = target: T3, Zinc finger protein mex-5 (Caenorhabditis elegans, UniProt Q9XUB2); experiment: MEX-5/TCR-2 RNA interaction inhibitors, dose response, biochemical, C. elegans, fluorescence polarization (AID 1960)
T3 sequence (Q9XUB2 whole entry): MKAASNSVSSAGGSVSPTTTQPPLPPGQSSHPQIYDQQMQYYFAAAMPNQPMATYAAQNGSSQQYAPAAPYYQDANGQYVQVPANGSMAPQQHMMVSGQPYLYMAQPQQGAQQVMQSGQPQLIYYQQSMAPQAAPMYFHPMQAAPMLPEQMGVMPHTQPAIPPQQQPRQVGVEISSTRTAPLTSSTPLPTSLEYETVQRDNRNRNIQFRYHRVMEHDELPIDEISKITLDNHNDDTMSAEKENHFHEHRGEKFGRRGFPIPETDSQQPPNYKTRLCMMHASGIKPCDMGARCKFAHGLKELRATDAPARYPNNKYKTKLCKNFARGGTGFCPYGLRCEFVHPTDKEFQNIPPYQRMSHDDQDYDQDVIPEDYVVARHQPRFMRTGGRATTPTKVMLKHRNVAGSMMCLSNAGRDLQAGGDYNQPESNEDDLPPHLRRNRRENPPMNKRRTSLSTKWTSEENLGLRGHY

[13] = target: T4, Aminopeptidase N (Plasmodium falciparum FcB1/Columbia, UniProt O96935); experiment: P. falciparum M1AAP inhibitors, biochemical, fluorogenic H-Leu-NHMec substrate, 1536-well (AID 1445); design: species or system Plasmodium falciparum 3D7, 3D7
T4 sequence (O96935 whole entry): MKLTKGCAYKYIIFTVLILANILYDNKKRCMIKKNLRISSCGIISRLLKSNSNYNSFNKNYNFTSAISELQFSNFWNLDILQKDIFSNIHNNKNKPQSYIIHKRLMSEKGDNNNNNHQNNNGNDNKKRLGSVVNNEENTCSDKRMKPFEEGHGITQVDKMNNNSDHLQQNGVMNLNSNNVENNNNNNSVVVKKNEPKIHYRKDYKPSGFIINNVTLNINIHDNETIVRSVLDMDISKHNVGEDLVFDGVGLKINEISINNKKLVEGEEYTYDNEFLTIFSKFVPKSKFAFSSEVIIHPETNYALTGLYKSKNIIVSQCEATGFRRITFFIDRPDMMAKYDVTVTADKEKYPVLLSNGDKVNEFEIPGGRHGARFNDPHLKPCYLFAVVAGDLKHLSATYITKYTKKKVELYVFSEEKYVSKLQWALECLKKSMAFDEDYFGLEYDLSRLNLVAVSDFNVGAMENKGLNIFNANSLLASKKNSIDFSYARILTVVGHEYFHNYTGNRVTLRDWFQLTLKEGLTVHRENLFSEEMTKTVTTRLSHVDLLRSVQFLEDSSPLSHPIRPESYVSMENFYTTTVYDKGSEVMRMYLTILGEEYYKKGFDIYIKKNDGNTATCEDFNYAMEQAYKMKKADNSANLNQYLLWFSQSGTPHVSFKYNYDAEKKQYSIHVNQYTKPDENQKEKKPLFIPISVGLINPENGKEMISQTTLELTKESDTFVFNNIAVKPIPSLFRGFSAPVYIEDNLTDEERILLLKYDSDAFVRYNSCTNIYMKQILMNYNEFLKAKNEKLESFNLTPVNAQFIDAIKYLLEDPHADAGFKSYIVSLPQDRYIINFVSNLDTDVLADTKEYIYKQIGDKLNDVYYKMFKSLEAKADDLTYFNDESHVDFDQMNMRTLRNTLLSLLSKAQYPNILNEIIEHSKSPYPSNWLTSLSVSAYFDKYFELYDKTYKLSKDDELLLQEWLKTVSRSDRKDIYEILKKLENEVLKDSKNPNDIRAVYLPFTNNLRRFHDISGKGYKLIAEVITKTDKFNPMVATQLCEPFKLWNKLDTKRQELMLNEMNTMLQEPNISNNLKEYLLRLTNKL

[14] = target: T5, RNA-binding protein pos-1 (Caenorhabditis elegans, UniProt G5EF15); experiment: inhibitors of POS-1/mex-3 RNA binding, dose response, biochemical, fluorescence polarization (AID 1964);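 also: purified POS-1 fused to maltose binding protein made in E. coli; potency of compounds blocking POS-1 binding to fluorescent RNA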
T5 sequence (G5EF15 whole entry): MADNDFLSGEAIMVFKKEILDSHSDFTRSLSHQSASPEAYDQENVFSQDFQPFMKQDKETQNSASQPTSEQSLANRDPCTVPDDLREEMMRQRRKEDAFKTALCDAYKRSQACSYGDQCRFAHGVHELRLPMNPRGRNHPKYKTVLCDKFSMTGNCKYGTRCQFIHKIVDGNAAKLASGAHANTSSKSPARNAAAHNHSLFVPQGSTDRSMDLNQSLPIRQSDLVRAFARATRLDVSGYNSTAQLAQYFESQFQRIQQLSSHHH

[15] = target: T2, Cytochrome P450 3A4
[16] = target: Large T antigen (Simian virus 40, UniProt P03070); format: functional, Betapolyomavirus macacae;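 also: Confirmatory-stage PubChem screen for compounds that inhibit SV40 T antigen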
[17] = target: T6, Ubiquitin-conjugating enzyme E2 N (Homo sapiens, UniProt P61088); format: functional;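 also: Dose-response confirmation in a TR-FRET assay detecting UBC13-driven polyubiquitin chain formation, inhibition measured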
T6 sequence (P61088 whole entry): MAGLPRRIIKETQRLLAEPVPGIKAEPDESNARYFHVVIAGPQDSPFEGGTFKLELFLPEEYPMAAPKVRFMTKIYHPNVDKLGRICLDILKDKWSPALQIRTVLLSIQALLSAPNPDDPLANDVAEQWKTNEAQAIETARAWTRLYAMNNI

T2 sequence (P08684 whole entry): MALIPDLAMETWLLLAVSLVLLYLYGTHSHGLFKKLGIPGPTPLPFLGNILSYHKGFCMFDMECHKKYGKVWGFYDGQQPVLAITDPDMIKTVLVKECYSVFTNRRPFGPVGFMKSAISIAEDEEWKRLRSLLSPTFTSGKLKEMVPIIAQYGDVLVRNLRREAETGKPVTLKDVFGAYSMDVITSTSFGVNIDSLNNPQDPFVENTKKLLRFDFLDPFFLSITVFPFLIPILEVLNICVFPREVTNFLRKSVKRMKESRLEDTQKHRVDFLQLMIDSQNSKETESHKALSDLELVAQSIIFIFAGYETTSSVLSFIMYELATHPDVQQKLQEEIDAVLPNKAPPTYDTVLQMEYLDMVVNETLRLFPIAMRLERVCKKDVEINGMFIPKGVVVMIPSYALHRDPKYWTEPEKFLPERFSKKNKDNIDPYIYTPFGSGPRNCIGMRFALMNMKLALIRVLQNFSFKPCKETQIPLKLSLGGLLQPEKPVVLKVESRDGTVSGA
Chain of Melanocortin receptor 4 (P32245 whole entry): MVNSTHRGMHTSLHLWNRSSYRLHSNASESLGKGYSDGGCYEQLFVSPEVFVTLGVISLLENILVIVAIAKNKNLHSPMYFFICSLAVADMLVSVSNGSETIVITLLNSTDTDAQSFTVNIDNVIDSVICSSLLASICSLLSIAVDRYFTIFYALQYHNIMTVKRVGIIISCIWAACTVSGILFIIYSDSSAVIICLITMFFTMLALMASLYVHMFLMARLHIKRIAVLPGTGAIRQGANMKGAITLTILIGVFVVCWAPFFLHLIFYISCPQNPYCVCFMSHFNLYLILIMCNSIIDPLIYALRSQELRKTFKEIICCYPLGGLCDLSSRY
Chain of Large T antigen (P03070 whole entry): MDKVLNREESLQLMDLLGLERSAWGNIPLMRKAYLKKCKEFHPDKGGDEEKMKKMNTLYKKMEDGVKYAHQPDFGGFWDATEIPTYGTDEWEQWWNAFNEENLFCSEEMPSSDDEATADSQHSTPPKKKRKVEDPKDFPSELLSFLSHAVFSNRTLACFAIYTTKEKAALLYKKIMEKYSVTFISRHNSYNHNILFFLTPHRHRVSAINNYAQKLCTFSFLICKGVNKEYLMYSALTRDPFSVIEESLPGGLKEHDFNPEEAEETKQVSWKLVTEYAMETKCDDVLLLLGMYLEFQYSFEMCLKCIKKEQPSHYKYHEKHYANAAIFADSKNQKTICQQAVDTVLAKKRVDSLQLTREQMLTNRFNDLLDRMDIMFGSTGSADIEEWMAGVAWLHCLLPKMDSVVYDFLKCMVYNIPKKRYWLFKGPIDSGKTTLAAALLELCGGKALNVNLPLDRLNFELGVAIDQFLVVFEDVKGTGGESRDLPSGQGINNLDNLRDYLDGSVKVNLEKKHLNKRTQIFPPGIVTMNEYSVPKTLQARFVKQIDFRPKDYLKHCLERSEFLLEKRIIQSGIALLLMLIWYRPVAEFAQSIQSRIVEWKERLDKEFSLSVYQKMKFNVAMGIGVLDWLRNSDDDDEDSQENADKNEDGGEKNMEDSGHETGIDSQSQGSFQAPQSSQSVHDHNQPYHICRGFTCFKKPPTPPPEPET
Chain of Genome polyprotein (P29990 2492-3391 limits assumed): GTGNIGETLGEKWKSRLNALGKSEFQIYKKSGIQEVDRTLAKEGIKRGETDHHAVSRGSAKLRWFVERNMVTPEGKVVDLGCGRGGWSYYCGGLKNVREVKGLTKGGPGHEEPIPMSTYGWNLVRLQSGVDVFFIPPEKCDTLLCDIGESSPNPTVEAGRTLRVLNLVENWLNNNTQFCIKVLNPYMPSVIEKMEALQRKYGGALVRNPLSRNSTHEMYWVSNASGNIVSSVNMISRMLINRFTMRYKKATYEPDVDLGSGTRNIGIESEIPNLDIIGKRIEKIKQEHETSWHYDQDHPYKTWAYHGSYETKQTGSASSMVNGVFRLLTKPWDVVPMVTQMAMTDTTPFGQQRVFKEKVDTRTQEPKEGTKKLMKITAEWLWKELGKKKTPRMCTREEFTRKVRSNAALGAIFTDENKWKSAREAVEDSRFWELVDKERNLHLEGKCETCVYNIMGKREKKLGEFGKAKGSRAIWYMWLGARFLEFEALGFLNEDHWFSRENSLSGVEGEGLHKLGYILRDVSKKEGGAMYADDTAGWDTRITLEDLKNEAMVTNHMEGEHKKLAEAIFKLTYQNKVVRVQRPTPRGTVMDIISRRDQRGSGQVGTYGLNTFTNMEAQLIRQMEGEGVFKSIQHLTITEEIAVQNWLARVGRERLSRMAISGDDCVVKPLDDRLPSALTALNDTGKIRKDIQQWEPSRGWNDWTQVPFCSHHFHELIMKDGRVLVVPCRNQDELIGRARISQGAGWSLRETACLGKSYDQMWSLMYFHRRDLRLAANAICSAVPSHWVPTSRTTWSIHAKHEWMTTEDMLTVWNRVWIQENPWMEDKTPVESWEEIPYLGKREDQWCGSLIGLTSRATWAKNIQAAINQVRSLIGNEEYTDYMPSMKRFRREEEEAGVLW
Chain of Glucose-6-phosphate 1-dehydrogenase (P11413 whole entry): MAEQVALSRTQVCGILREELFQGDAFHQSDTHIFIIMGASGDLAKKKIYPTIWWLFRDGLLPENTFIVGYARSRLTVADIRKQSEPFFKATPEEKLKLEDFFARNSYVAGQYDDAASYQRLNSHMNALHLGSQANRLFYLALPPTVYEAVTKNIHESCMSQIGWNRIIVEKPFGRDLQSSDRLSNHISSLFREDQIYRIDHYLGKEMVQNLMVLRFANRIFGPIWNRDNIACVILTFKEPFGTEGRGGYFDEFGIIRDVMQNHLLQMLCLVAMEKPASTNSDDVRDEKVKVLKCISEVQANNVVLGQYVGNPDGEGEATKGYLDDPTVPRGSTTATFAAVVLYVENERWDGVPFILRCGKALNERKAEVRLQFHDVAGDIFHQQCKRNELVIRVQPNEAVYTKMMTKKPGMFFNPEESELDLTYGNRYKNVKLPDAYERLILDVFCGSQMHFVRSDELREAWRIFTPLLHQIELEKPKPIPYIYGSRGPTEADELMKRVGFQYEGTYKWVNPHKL

With `O=C(O)c1cccc(N2C(=O)C=CC2=O)c1` the IC50 [1] was 76.9 µM (active) and the IC50 [2] was > 80 µM (inactive).
In the case of `C[C@@H]1CN([C@@H](C)CO)C(=O)CCCn2nncc2CO[C@@H]1CN(C)Cc1cccc(C(F)(F)F)c1`, the AC50 [3] is reported as > 52 µM (inactive).
For `Cc1nc(C)c(/C(O)=C/c2nc3ccccc3oc2=O)s1`, the IC50 [4] was 3.09 µM (active) and the CC50 [5] was > 40 µM (active).
For `CN1C(=O)C2CN(CCc3ccccc3)CNC2N(C)C1=O` (stereo unspecified), the IC50 [6] was > 29.9 µM (inactive) and the EC50 [7] was > 29.9 µM (inactive).
With `CC(NC(=O)c1ccc(F)cc1)c1ccc2c(c1)CCCC2` (stereo unspecified) the IC50 [8] was 20.9 µM (active).
In the case of `C=CC(=O)OCCCCCCOC(=O)C=C`, the AC50 [9] is reported as 25.1 µM (inconclusive).
With `CCCc1nc(SCC(=O)Nc2nc3c(s2)CCCC3)c2ccccc2n1` the IC50 [10] was > 64.6 µM (inactive) and the IC50 [11] was > 64.6 µM (inactive).
With `Cc1ncc(CN2CC=C(c3ccccc3)CC2)c(N)n1` the AC50 [9] was 25.1 µM (inconclusive).
For `Cc1cnc(C)c(N2CCN(Cc3nc(-c4cccc(F)c4F)oc3C)CC2)n1`, the IC50 [8] was 15.1 µM (active).
For `O=c1cc(-c2ccc(O)c(O)c2)oc2cc(O)cc(O)c12` [LUTEOLIN], the EC50 [12] was 31 µM (active), the IC50 [13] was 22.9 µM (active) and the EC50 [14] was 60.4 µM (active). For the same compound, the AC50 [15] was 5.01 µM (inconclusive) and the IC50 [16] was 11.9 µM (active).
With `CN(C)CCCN1C(=O)C(O)=C(C(=O)c2cc3ccccc3o2)C1c1ccccn1` (stereo unspecified) the IC50 [10] was > 64.6 µM (inactive) and the IC50 [11] was > 64.6 µM (inactive).
For `CC(C)OCCCNc1nc2c(-c3ccccc3)nnn2c2ccccc12`, the IC50 [17] was > 20 µM (inactive).
